# The supplement of paper PMC10307832
# How the values were obtained:
# Assay in all cases: relative viability (nuclei count vs DMSO), 5 days (fraction); higher = more cells survive
# Quizartinib + Bortezomib = compound: CC(C)(C)c1cc(NC(=O)Nc2ccc(-c3cn4c(n3)sc3cc(OCCN5CCOCC5)ccc34)cc2)no1 [Quizartinib] + CC(C)C[C@H](NC(=O)[C@H](Cc1ccccc1)NC(=O)c1cnccn1)B(O)O [Bortezomib] (partner 0.002 µM)
# In short: (§1)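 Values are medians from duplicate plates. Each reflects relative viability, defined as the nuclei count of treated wells over that of vehicle wells. Lung cancer cell lines in 1536-well plates were pin-tool dosed one day after seeding with one drug alone or with a fixed anchor-drug dose plus five library-drug doses (not always all listed) in √10 steps, then fixed, stained and imaged at 4× after 5 days.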
# Quizartinib + Pictilisib = compound: CC(C)(C)c1cc(NC(=O)Nc2ccc(-c3cn4c(n3)sc3cc(OCCN5CCOCC5)ccc34)cc2)no1 [Quizartinib] + CS(=O)(=O)N1CCN(Cc2cc3nc(-c4cccc5[nH]ncc45)nc(N4CCOCC4)c3s2)CC1 [Pictilisib] (partner 1 µM)
# In short: as §1
# Quizartinib + Olaparib = compound: CC(C)(C)c1cc(NC(=O)Nc2ccc(-c3cn4c(n3)sc3cc(OCCN5CCOCC5)ccc34)cc2)no1 [Quizartinib] + O=C(c1cc(Cc2n[nH]c(=O)c3ccccc23)ccc1F)N1CCN(C(=O)C2CC2)CC1 [Olaparib] (partner 8 µM)
# In short: as §1
# YM155 + Dasatinib = compound: COCC[n+]1c2c(n(Cc3cnccn3)c1C)C(=O)c1ccccc1C2=O [YM155] + Cc1nc(Nc2ncc(C(=O)Nc3c(C)cccc3Cl)s2)cc(N2CCN(CCO)CC2)n1 [Dasatinib] (partner 0.075 µM)
# In short: as §1
Cell Line,relative viability (Quizartinib + Bortezomib; first compound 0.001 µM),relative viability (Quizartinib + Bortezomib; first compound 0.003162 µM),relative viability (Quizartinib + Bortezomib; first compound 0.01 µM),relative viability (Quizartinib + Bortezomib; first compound 0.03162 µM),relative viability (Quizartinib + Bortezomib; first compound 0.1 µM),relative viability (Quizartinib + Pictilisib; first compound 0.001 µM),relative viability (Quizartinib + Pictilisib; first compound 0.003162 µM),relative viability (Quizartinib + Pictilisib; first compound 0.01 µM),relative viability (Quizartinib + Pictilisib; first compound 0.03162 µM),relative viability (Quizartinib + Pictilisib; first compound 0.1 µM),relative viability (Quizartinib + Olaparib; first compound 0.001 µM),relative viability (Quizartinib + Olaparib; first compound 0.003162 µM),relative viability (Quizartinib + Olaparib; first compound 0.01 µM),relative viability (Quizartinib + Olaparib; first compound 0.03162 µM),relative viability (Quizartinib + Olaparib; first compound 0.1 µM),relative viability (YM155 + Dasatinib; first compound 0.002 µM),relative viability (YM155 + Dasatinib; first compound 0.006325 µM),relative viability (YM155 + Dasatinib; first compound 0.02 µM),relative viability (YM155 + Dasatinib; first compound 0.06325 µM)
201T,1.09,1.09,1.1,1.09,1.12,0.668,0.678,0.669,0.68,0.695,0.581,0.802,0.833,0.87,0.857,0.562,0.616,0.558,0.609
A549,–,–,–,–,–,0.457,0.441,0.598,0.211,0.614,–,0.327,0.378,0.257,0.439,–,–,–,–
A-427,0.911,0.952,1.06,1,1.01,0.702,0.709,0.708,0.68,0.668,0.736,0.719,0.687,0.586,0.711,0.688,0.734,0.839,0.818
ABC-1,0.283,0.232,0.299,0.28,0.262,0.502,0.683,0.648,0.626,0.769,–,0.807,0.845,0.911,0.956,0.48,0.374,0.197,0.26
BEN,0.583,0.677,0.703,0.766,0.83,0.499,0.613,0.55,0.496,0.543,1.11,1.02,0.991,0.841,1.02,0.331,0.269,0.36,0.348
CAL-12T,0.809,1.23,0.93,0.924,1.24,0.47,0.536,0.308,0.398,0.547,0.617,0.76,0.674,0.594,0.841,0.255,0.615,0.602,0.393
COR-L23,0.965,0.908,1.14,0.902,0.889,0.535,0.758,0.698,0.589,0.763,0.34,0.356,0.319,0.274,0.247,0.503,0.463,0.367,0.221
COR-L 105,0.64,0.632,0.634,0.632,0.617,0.397,0.49,0.401,0.365,0.371,0.705,0.795,0.65,–,0.863,0.284,0.333,0.312,0.283
Calu-6,0.924,0.991,1.02,0.811,1.07,0.877,0.867,0.988,0.607,0.858,0.604,0.549,0.512,0.492,0.64,–,–,–,–
